Data as given in patent US20060247421A1, “Liver x receptor alpha splicing mutant protein, gene thereof and utilization of the same” (priority 2003, published 2006).

Test system: liver X receptor α splicing mutant proteins (D5, 5A and 6A)
Assay: Reporter assay in a transient expression system in HEK293 cells (TATA-LXREx4-luciferase), ligand-dependent transcription activating ability
Type: cell-based, human
Settings: three kinds of liver X receptor α splicing mutant proteins
Method: FIG. 5 is a view showing the results of assessment of the function of liver X receptor α splicing mutant proteins (D5, 5A and 6A) by a reporter assay in a transient expression system in HEK293 cells. […] A non-treated section is represented by white, a 1 μg/ml 22R-hydroxycholesterol-treated section is represented by black, and a 1 μg/ml 25-hydroxycholesterol-treated section is represented by gray. In addition, in each test section, 1 μM 9-cis retinoic acid is contained. Letting a value of luciferase activity in a control section (control) in which only a solvent was added to be 100%, a value of luciferase activity in each test section is shown as a relative value. WT means a normal liver X receptor α.
A human fetal kidney-derived HEK293 cell strain (ATCC; CRL-1573) was subcultured in a Dulbecco modified Eagle medium (DMEM) containing 10% bovine fetal serum (FBS) from which low-molecular substances had been removed with charcoal dextran, and penicillin (100 unit/ml) and streptomycin ([…]) as an antibiotic, and not containing phenol red at 37° C. under the presence of 5% CO2. The subcultured HEK293 cell strain was seeded on a 10 cm cell culturing dish to about 2×10^6 cells. […]

Structure (SMILES): CC(C)CC[C@@H](O)[C@@H](C)[C@H]1CC[C@H]2[C@@H]3CC=C4C[C@@H](O)CC[C@]4(C)[C@H]3CC[C@]12C [22R-oxycholesterol]
- transcription activating ability depending on ligand, as compared with that of a normal liver X receptor α: extremely weak or not recognized level
